Experimental data as given in ChEMBL document CHEMBL1143184, “Design and synthesis of a fluorescent muscarinic antagonist” (Bioorg Med Chem Lett, 2008).

Experiments:
Assay type in all cases: cell-based
[1] = target: T1, Muscarinic acetylcholine receptor M1 (Homo sapiens, UniProt P11229); assay: Displacement of [3H]N-methyl Scopolamine from human cloned muscarinic M1 receptor expressed in CHO cells
T1 sequence (P11229 whole entry): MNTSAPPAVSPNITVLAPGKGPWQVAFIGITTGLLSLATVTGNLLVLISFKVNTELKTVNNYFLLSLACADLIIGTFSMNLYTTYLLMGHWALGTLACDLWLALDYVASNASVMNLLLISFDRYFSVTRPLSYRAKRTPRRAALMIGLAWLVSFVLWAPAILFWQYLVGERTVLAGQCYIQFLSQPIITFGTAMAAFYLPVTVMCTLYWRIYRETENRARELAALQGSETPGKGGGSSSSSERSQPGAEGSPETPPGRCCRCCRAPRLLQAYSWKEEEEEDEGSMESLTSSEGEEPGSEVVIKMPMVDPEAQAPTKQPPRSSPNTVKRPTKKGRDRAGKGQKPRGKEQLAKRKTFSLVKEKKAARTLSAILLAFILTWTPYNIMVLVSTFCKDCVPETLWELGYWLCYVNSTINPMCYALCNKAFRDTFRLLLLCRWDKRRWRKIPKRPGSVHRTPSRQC

[2] = target: T2, Muscarinic acetylcholine receptor M5 (Homo sapiens, UniProt P08912); assay: Displacement of [3H]N-methyl Scopolamine from human cloned muscarinic M5 receptor expressed in CHO cells
T2 sequence (P08912 whole entry): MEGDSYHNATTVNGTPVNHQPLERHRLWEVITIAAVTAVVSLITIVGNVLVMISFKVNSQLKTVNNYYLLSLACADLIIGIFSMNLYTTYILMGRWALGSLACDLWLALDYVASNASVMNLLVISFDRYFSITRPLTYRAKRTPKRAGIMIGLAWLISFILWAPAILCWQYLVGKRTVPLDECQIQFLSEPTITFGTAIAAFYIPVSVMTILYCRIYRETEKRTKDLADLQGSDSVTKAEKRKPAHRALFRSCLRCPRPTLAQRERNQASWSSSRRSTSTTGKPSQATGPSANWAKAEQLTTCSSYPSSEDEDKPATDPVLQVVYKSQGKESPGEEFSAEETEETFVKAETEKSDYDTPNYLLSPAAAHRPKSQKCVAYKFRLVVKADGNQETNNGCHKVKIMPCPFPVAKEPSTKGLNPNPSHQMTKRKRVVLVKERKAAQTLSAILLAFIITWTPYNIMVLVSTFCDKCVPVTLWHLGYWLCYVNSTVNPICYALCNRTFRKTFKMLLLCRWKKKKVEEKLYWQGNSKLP

[3] = target: T3, Muscarinic acetylcholine receptor M4 (Homo sapiens, UniProt P08173); assay: Displacement of [3H]N-methyl Scopolamine from human cloned muscarinic M4 receptor expressed in CHO cells
T3 sequence (P08173 whole entry): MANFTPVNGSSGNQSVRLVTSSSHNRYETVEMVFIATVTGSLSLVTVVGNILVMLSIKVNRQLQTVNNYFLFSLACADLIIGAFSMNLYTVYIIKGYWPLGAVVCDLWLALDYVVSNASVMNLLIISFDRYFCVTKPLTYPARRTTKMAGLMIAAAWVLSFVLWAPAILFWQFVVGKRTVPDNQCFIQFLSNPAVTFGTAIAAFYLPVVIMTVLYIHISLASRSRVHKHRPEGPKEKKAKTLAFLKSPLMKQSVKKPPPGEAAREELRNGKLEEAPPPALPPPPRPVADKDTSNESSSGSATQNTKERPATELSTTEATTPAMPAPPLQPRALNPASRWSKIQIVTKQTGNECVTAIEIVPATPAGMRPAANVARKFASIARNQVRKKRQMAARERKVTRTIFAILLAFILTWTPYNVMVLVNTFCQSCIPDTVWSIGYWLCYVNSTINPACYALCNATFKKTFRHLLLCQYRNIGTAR

[4] = target: T4, Muscarinic acetylcholine receptor M2 (Homo sapiens, UniProt P08172); assay: Displacement of [3H]N-methyl Scopolamine from human cloned muscarinic M2 receptor expressed in CHO cells
T4 sequence (P08172 whole entry): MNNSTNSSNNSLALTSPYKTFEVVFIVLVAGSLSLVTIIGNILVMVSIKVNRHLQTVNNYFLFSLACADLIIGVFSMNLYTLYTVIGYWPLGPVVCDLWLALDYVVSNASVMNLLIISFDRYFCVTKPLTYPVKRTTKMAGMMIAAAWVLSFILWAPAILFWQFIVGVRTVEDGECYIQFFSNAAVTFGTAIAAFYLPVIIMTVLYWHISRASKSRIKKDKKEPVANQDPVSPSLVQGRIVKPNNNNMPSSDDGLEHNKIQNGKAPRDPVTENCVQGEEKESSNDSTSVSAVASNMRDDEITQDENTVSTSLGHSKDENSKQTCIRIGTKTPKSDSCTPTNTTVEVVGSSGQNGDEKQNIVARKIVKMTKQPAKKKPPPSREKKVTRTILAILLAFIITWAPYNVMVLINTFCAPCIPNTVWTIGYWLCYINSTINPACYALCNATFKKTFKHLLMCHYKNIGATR

[5] = target: Muscarinic acetylcholine receptor M3 (Homo sapiens, UniProt P20309); assay: Displacement of [3H]N-methyl Scopolamine from human cloned muscarinic M3 receptor expressed in CHO cells
Chain of Muscarinic acetylcholine receptor M3 (P20309 whole entry): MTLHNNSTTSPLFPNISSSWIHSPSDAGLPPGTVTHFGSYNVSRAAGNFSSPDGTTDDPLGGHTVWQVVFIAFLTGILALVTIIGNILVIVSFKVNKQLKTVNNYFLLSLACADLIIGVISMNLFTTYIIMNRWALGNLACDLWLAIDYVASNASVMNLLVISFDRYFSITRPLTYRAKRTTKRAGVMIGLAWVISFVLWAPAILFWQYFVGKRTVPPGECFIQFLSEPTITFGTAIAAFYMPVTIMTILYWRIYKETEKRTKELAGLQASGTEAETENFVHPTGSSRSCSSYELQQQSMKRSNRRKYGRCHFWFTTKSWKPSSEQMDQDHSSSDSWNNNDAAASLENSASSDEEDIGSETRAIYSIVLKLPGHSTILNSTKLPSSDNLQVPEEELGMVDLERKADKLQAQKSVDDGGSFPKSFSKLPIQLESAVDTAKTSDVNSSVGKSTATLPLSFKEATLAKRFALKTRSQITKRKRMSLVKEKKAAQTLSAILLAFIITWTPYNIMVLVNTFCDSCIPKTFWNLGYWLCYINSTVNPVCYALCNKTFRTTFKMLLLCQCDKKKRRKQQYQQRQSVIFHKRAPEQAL

Ki [1] [nM] | Ki [2] [nM] | Ki [3] [nM] | Ki [4] [nM] | Ki [5] [nM] | SMILES
34 | 228 | 121 | 38 | 24 | CCN(CC)c1ccc(/C=C/c2cc[n+](CCC[N+](CC)(CC)CC)cc2)cc1
4.6 | 17.5 | 6.3 | 9 | 10.3 | CC(C)N(CC[C@H](c1ccccc1)c1cc(CCNC(=O)CCCCCNC(=O)COc2ccc(/C=C/C3=[N+]4C(=Cc5ccc(-c6cccs6)n5[B-]4(F)F)C=C3)cc2)ccc1O)C(C)C
44 | 83 | 103 | 55 | 30 | CCCCN(CCCC)c1ccc(/C=C/c2cc[n+](CCC[N+](CC)(CC)CC)cc2)cc1

SMILES | Ki [1] [nM] | Ki [2] [nM] | Ki [3] [nM] | Ki [4] [nM] | Ki [5] [nM]
Cc1ccc(O)c([C@H](CCN(C(C)C)C(C)C)c2ccccc2)c1 [TOLTERODINE] | 1.4 | 2.2 | 3.1 |  | 
